Here are results for two molecules from ChEMBL document CHEMBL4732069, “Singly and doubly modified analogues of C20-epi-salinomycin: A new group of antiparasitic agents against Trypanosoma brucei” (Eur J Med Chem, 2021).

Series [1] relates to Trypanosoma brucei brucei. Kind of series: Antitrypanosomal activity against Trypanosoma brucei brucei assessed as cell swelling. It counts as functional, organism-based.
A short description of series [2]: Cytotoxicity against human HL-60 cells by resazurin dye based fluorescence assay. It counts as cell-based.
Series [3] deals with Trypanosoma brucei brucei. Briefly: Antitrypanosomal activity against Trypanosoma brucei brucei S427 by resazurin dye based fluorescence assay. It counts as functional. On the technique in general: Resazurin is reduced to fluorescent resorufin, in cell work by metabolically active cells.
The nature of series [4]: Selectivity index, ratio of GI50 for human HL-60 cells to GI50 for antitrypanosomal activity against Trypanosoma brucei brucei S427. The note with it: read-out: RatioGI50. It counts as toxicity.

Structures are written as SMILES. Active and inactive are the calls of the source. The rule behind the calls is not given here.

As a reminder, the GI50 is the concentration giving 50% growth inhibition. Low values mean greater sensitivity of the cells, high ones lower sensitivity of the cells. `CC[C@@H](C(=O)[C@@H](C)[C@@H](O)[C@H](C)[C@@H]1O[C@@H]([C@@H](CC)C(=O)O)CC[C@@H]1C)[C@H]1O[C@]2(C=C[C@H](O)[C@]3(CC[C@@](C)([C@H]4CC[C@](O)(CC)[C@H](C)O4)O3)O2)[C@H](C)C[C@@H]1C`: in series [1], the result was inactive. Also, the GI50 was 393 µM in series [2] and 8.49 µM in series [3]. Besides, in series [4], the selectivity ratio stood at 4.6.
On to `CCOC(=O)O[C@H]1C=C[C@]2(O[C@H]([C@@H](CC)C(=O)[C@@H](C)[C@@H](O)[C@H](C)[C@@H]3O[C@@H]([C@@H](CC)C(=O)O)CC[C@@H]3C)[C@@H](C)C[C@H]2C)O[C@@]12CC[C@@](C)([C@H]1CC[C@](O)(CC)[C@H](C)O1)O2`, for which the outcome in series [1] was Active. In addition, the GI50 in series [2] was 12.6 µM; in series [3], 0.2 µM. For the same molecule, in series [4], the selectivity ratio came out at 293.
